# Columns and labels:
# [1] = test system: Male ddk mice; assay: Forced swim test (FST), mean immobility time; assay type: in vivo, mouse; details: for immobility period in FST: 4 mg/kg each (FIG. 2)
# Procedure: Male ddk mice weighing between 22 and 30 g, bred in the Center Animal House facility of Kaohsiung Medical University (KMU), Taiwan, were used. These experimental animals were housed under standard laboratory conditions and maintained on natural light and dark cycle, and had free access to food and water. Animals were acclimatized to laboratory conditions before the experiment. Each animal was used only once. All the experiments were carried out between 9 a.m. and 3 p.m. The experimental protocols were approved by the Animal Center of KMU, Taiwan.
# Forced swim would induce immobility of an animal to simulate the phenomenon of human depression (Renard et al., 2003) and antidepressant was used to reverse this phenomenon (Kulkarni and Mehta, 1985). This test procedure was carried out according to the previous animal model (Reddy et al., 1998).
# The doses of the drugs used were selected according to the previous studies (Patil et al., 2005). Different doses were administrated intraperitoneally in a fixed volume of 1 ml/100 g body weight for 30 minutes before the animals were subjected to test.
# The possible participation of the NO/cGMP pathway in the antidepressant effect of Pulmodil was investigated. Mice were pretreated with NO/cGMP pathway regulation related drugs ([…], L-arginine, methylene blue or 7-nitroindazole), and then Pulmodil or vehicle was injected to the animal. Forced swim test was performed 30 minutes later.
# The possible participation of the 5-HT pathway in the antidepressant effect of Pulmodul was investigated. Mice were pretreated with 5-HT pathway related drugs (DOI, m-CPP or SB200646), and then Pulmodil or vehicle was injected to the animal. Forced swim test was performed 30 minutes later.
# Results expressed as mean (sec.)±S.E.M. and the data was analyzed using One-Way or Two-Way Analysis of Variance (ANOVA) where appropriate. If any statistically significant change was found, post-hoc comparisons were performed using a Dunnett's test. Data was deemed significant when P<0.05 was considered statistically significant.
# [2] = test system: cGMP concentration of mouse brain; assay: cGMP analysis of mouse brain (ELISA); assay type: in vivo; details: 30 minutes post injection, basal (vehicle) 0.131±0.003
# Procedure: Male mice were given Pulmodil with intraperitoneal (i.p.) injection, where mice were divided into three groups, and 0.5, 1 and 2 mg/kg Pulmodil respectively for each group. After 30-minute injection, mice were anesthetized with […] chloral hydrate, and then were fixed on the stereotaxic frame (Narishige, Japan) to obtain mice brain. The isolated brain was homogenized and extracted with 0.1 N HCl. The extract was centrifuged at 4° C., at 14,000 rpm for 30 minutes, and supernatant was collected to determine cGMP concentration, which was determined with commercial enzyme-linked immunosorbent assay (ELISA) kit (Assay Designs) by acetylation procedure.
# [3] = test system: Male ddk mice pre-treated with Reserpine; assay: Reserpine-induced forced swimming immobility; assay type: in vivo, mouse; details: for Reserpine-induced immobility: Reserpine 2 mg/kg pre-treatment, then 4 mg/kg, p<0.05 (FIG. 4)
# Procedure: Male ddk mice weighing between 22 and 30 g, bred in the Center Animal House facility of Kaohsiung Medical University (KMU), Taiwan, were used. […] Animals were acclimatized to laboratory conditions before the experiment. Each animal was used only once. All the experiments were carried out between 9 a.m. and 3 p.m. […] This test procedure was carried out according to the previous animal model (Reddy et al., 1998). […] Mice were pretreated with NO/cGMP pathway regulation related drugs (Reserpine, L-arginine, methylene blue or 7-nitroindazole), and then Pulmodil or vehicle was injected to the animal. Forced swim test was performed 30 minutes later.
structure (smiles),measurement,setting,value
"COc1cc(CC(C)N)c(OC)cc1I (stereo not drawn) [DOI, 1-(2,5-dimethoxy-4-iodophenyl)-2-aminopropane, reference compound]",immobility per se,[1]; DOI 4 mg/kg i.p. alone (FIG. 8),did not affect the immobility
"CN(C)c1ccc2nc3ccc(=[N+](C)C)cc-3sc2c1 [Methylene blue, methylene blue, reference compound]",immobility time per se,[1]; methylene blue 10 mg/kg i.p. alone (FIG. 6),did not affect the immobility time
"Cl.Cn1c(=O)c2c(ncn2CCN2CCN(c3ccccc3Cl)CC2)n(C)c1=O [Pulmodil, 7-[2-[4-(2-chlorophenyl)piperazinyl]ethyl]-1,3-dimethylxanthine.acid]",immobility period in mouse FST,"[1]; 4, 8 and 16 mg/kg, compared with vehicle, p<0.05 (FIG. 1)",produced a decrease in immobility period
same,immobility time after 7-nitroindazole pre-treatment,"[1]; 7-nitroindazole 25 mg/kg i.p. for 30 minutes, then Pulmodil 8 mg/kg i.p., P<0.05 (FIG. 7)",shortened the immobility time
same,immobility time after DOI pre-treatment,"[1]; DOI 4 mg/kg i.p. for 30 minutes, then Pulmodil 4 or 8 mg/kg i.p., in comparison with FIG. 1, p<0.05 (FIG. 8)",prolonged the immobility time
same,immobility period after L-arginine pre-treatment,"[1]; L-arginine 750 mg/kg i.p. for 30 minutes, then Pulmodil 16 mg/kg i.p., compared to Pulmodil without L-arginine (FIG. 5)",increase in immobility period
same,immobility time after SB200646 pre-treatment,"[1]; SB200646 4 mg/kg i.p., then Pulmodil 4 or 8 mg/kg i.p., p<0.05 (FIG. 10)",significantly reduced this immobility time
same,immobility time after m-CPP pre-treatment,"[1]; m-CPP 4 mg/kg i.p., then Pulmodil 4 or 8 mg/kg i.p., in comparison with FIG. 1, p<0.05 (FIG. 9)",shortened this immobility time
same,immobility time after methylene blue pre-treatment,"[1]; methylene blue 10 mg/kg i.p. for 30 minutes, then Pulmodil 8 mg/kg i.p., p<0.05 (FIG. 6)",significantly decreased the immobility time
same,cGMP concentration in the brain,[2]; 0.5 mg/kg i.p.,0.201 ± 0.003 fmol/µg
same,cGMP concentration in the brain,[2]; 1 mg/kg i.p.,0.293 ± 0.023 fmol/µg
same,cGMP concentration in the brain,[2]; 2 mg/kg i.p.,0.288 ± 0.0234 fmol/µg
COC(=O)[C@H]1[C@H]2C[C@@H]3c4[nH]c5cc(OC)ccc5c4CCN3C[C@H]2C[C@@H](OC(=O)c2cc(OC)c(OC)c(OC)c2)[C@@H]1OC [Reserpine],"immobility period in mouse FST, Reserpine alone","[3]; Reserpine 2 mg/kg, p<0.05 (FIG. 3)",increased immobility period
"Cl.Cn1ccc2cc(NC(=O)Nc3cccnc3)ccc21 [SB200646, N-(1-methyl-1H-5-indolyl)-N′-(3-pyridinyl)urea hydrochloride, reference compound]",immobility time per se,[1]; SB200646 4 mg/kg i.p. alone (FIG. 10),did not affect the immobility time
"CCCc1nn(C)c2c(=O)[nH]c(-c3cc(S(=O)(=O)N4CCN(C)CC4)ccc3OCC)nc12 [Sildenafil, reference compound]",Reserpine-induced immobility,[3],significantly inhibited
same,immobility period in FST,[1],could not significantly affect immobility time
"O=c1n(CCCN2CCN(c3cccc(Cl)c3)CC2)nc2ccccn12 [Trazodone, reference compound]",Reserpine-induced immobility,[3],significantly inhibited
same,immobility period in FST,[1],significantly decreased the immobility period
"Clc1cccc(N2CCNCC2)c1 [m-CPP, meta-chlorophenylpiperazine, reference compound]",immobility time per se,"[1]; m-CPP 4 mg/kg i.p. alone, p<0.05 vs vehicle (FIG. 9)",mildly increased the immobility time
"Cn1c(=O)c2c(ncn2CCN2CCN(c3ccccc3Cl)CC2)n(C)c1=O [xanthine-based compound, 7-[2-[4-(2-chlorophenyl)piperazinyl]ethyl]-1,3-dimethylxanthine]",immobility period after Reserpine pre-treatment,"[3]; Reserpine 2 mg/kg for 4 hours, then 2, 3, 4 or 8 mg/kg, p<0.05 vs Reserpine (FIG. 3)",dose-dependently reduced the immobility period
same,Reserpine-induced immobility,[3],significantly inhibited

# Reference: US20120094985A1, “PHARMACEUTICAL COMPOSITIONS COMPRISING CHLOROPHENYL PIPERAZINE DERIVED COMPOUNDS AND USE OF THE COMPOUNDS IN PRODUCING MEDICAMENTS” (KAOHSIUNG MEDICAL UNIVERSITY, priority 2009, published 2012)
